The values that follow come from patent US8299072B2, “Pyrazolylmethylamine compounds as calcium channel modulators and preparation method thereof” (Korea Institute of Science and Technology, priority 2008, dated 2012).

The structures appear in SMILES notation.

For the assay, the target named is T1, α1G T-type calcium channel (Homo sapiens, UniProt O43497).
T1 construct: expressed in transfected cells; host or cells: HEK293 cells stably expressing α1G, selected with G-418; The cell line KCTC 10519BP is named only for the FDSS6000 screen
T1 sequence (O43497 whole entry): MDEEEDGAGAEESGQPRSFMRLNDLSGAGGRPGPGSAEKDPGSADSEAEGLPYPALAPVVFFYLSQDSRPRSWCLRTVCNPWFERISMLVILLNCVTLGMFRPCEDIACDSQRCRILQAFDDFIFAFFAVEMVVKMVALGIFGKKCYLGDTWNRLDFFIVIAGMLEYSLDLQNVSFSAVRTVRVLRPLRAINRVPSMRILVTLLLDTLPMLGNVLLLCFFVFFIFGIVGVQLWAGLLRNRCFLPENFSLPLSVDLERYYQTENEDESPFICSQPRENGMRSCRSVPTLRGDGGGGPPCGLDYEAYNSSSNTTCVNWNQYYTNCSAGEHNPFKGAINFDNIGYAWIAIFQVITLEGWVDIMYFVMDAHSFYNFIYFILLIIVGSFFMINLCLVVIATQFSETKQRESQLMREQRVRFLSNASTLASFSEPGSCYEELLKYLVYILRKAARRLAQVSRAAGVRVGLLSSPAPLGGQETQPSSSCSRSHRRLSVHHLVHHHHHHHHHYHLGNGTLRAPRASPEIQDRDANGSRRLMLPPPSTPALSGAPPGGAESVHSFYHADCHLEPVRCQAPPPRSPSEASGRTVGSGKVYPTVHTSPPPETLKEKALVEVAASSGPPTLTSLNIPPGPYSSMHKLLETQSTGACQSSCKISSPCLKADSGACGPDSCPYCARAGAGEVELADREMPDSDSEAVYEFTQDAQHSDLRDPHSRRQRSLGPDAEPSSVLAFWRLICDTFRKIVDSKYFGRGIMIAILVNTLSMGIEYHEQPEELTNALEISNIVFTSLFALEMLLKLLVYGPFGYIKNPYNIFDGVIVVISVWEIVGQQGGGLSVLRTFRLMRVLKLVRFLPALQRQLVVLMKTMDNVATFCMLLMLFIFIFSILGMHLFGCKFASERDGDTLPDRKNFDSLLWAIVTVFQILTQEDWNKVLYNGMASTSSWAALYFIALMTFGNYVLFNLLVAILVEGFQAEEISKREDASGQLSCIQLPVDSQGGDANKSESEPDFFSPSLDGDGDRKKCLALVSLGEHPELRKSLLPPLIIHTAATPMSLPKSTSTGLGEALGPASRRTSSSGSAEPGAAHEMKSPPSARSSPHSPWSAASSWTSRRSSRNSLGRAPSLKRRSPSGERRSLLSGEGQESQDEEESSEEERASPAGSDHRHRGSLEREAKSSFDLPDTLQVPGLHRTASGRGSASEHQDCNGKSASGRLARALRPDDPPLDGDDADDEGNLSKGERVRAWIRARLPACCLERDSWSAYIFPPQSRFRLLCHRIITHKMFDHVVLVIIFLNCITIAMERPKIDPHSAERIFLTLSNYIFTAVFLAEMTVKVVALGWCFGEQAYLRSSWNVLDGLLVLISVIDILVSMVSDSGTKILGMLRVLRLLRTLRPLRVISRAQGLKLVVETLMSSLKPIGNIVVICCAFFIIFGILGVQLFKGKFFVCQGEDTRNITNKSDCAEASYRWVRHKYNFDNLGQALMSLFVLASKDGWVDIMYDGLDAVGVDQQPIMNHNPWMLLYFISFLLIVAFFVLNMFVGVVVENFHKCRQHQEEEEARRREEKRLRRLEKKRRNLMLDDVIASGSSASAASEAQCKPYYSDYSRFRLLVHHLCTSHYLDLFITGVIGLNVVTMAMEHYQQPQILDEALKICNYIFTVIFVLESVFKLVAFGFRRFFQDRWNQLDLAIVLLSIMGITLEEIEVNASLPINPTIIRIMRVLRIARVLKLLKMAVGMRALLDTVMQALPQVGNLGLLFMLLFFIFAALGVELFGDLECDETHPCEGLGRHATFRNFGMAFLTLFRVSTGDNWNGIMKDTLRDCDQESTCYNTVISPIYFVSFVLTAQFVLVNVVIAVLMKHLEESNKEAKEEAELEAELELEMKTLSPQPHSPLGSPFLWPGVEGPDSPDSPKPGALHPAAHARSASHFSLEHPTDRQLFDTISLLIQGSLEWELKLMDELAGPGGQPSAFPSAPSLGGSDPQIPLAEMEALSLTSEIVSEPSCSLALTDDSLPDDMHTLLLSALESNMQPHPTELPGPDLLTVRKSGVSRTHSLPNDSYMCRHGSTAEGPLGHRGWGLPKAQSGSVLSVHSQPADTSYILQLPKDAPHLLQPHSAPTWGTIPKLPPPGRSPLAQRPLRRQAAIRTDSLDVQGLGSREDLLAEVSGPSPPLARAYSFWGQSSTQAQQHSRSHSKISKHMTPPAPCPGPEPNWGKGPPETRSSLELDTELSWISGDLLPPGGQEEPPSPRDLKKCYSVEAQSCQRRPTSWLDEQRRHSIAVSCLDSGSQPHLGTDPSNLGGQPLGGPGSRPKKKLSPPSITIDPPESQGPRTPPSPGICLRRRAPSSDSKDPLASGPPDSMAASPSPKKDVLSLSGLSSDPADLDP
The experiment in a line: T-type calcium channel activity by electrophysiological whole-cell patch-clamp technique. It counts as cell-based. The settings on record: HEK293 cells stably expressing α1G T-type calcium channels, inhibition of inward peak currents, test pulse −30 mV, holding −100 mV. As for the experimental part:
The novel compounds of the present invention represented by the above formula 1 were tested for their antagonistic activities with regard to T-type calcium channel as follows.
2) Methods for the Measurements of T-Type Calcium Channel Activity Using an Electrophysiological Whole-Cell Patch-Clamp Technique
HEK293 cells stably expressing T-type calcium channels were cultured in DMEM (Dulbecco's modified Eagle's medium) containing 10% (v/v) fetal bovine serum and 1% penicillin/streptomycin (v/v) in humidified 5% CO2 at 36.5° C. Cells expressing α1G T-type calcium channels were selected using G-418 (0.5 mg/mL) in the culture medium. The culture medium was replaced with a fresh one every 3-4 days, and cells were subcultured every week.
Cells were seeded on the coverglass coated with poly-L-lysine (0.5 mg/mL) for the measurements of T-type calcium channel activity 2-7 days prior to the recordings. Whole-cell recordings of T-type calcium channel currents were performed using an EPC-9 patch clamp amplifier (HEKA, Germany). Whole-cell currents were recorded using micropipettes with resistance of 3-4MΩ with the pipette (intracellular) solution containing (in mM): 130 KCl, 11 EGTA, 5 Mg-ATP, and 10 HEPES, pH to 7.4 and with the bath (extracellular) solution containing (in mM): 140 NaCl, 2 CaCl2, and 10 HEPES, pH to 7.4. The inward currents of T-type calcium channels were evoked by the test pulses of −30 mV for 50 ms at a holding potential of −100 mV every 10 seconds.
Each compound was dissolved in dimethylsulfoxide (DMSO) as 10 mM stock solutions and diluted in the bath solution to 10 μM (containing 0.1% DMSO). […] More specifically, each compound was perfused to the bath for about 30-60 seconds, and the inhibition of the inward peak currents by a test compound was calculated as a percent inhibition from which IC50 values were determined.
For `Cc1cc(CNC(=O)CN2CCN(C(c3ccccc3)c3ccccc3)CC2)nn1-c1ccccc1` [Compound No. 3, 3-[(4-benzhydrylpiperazin-1-yl)methylcarboxamido]methyl-5-methyl-1-phenyl-1H-pyrazole], the concentration for half-maximal inhibition (IC50) was 1830 ± 120 nM.
Regarding `CCCc1cc(CNC(=O)CN2CCN(Cc3ccc(C(F)(F)F)cc3)CC2)nn1-c1ccccc1` [Compound No. 32, 3-{[4-(4-trifluoromethyl)benzylpiperazin-1-yl]methylcarboxamido}methyl-5-propyl-1-phenyl-1H-pyrazole], the half-maximal inhibitory concentration (IC50) was determined as 1810 ± 90 nM.
With `CCCc1cc(CNC(=O)CN2CCN(Cc3ccc4c(c3)OCO4)CC2)nn1-c1ccccc1` [Compound No. 33, 3-[(4-piperonylpiperazin-1-yl)methylcarboxamido]methyl-5-propyl-1-phenyl-1H-pyrazole], the IC50 was found to be 9560 ± 1420 nM.
On to `CC(C)Cc1cc(CNC(=O)CN2CCN(Cc3ccc(C(F)(F)F)cc3)CC2)nn1-c1ccccc1` [Compound No. 16, 3-{[4-(4-trifluoromethylbenzyl)piperazin-1-yl]methylcarboxamido}methyl-5-isobutyl-1-phenyl-1H-pyrazole], for which the IC50 amounted to 1770 ± 100 nM.
The same measure for `CC(C)Cc1cc(CNCC(=O)N2CCN(Cc3ccc(Cl)c(Cl)c3)CC2)nn1-c1ccccc1` [Compound No. 75, 3-{[4-(3,4-dichlorobenzyl)piperazin-1-yl]carbonylmethylamino}methyl-5-isobutyl-1-phenyl-1H-pyrazole]: 300 ± 10 nM; for `Cc1cccc(N2CCN(C(=O)CNCc3cc(C)n(-c4ccccc4)n3)CC2)c1C` [Compound No. 64, 3-{[4-(2,3-dimethylphenyl)piperazin-1-yl]carbonylmethylamino}methyl-5-methyl-1-phenyl-1H-pyrazole]: 2060 ± 1200 nM; for `O=C(CN1CCN(c2ccccc2)CC1)NCc1cc(-c2ccco2)n(-c2ccccc2)n1` [Compound No. 11, 3-[(4-phenylpiperazin-1-yl)methylcarboxamido]methyl-5-furyl-1-phenyl-1H-pyrazole]: 2570 ± 170 nM.
Turning to `CC(C)Cc1cc(CNC(=O)CN2CCN(c3ccccn3)CC2)nn1-c1ccccc1` [Compound No. 36, 3-{[4-(2-pyridyl)piperazin-1-yl]methylcarboxamido}methyl-5-isobutyl-1-phenyl-1H-pyrazole], the IC50 was 9420 ± 700 nM.
Take `CC(C)Cc1cc(CNC(=O)CN2CCN(c3ccccc3)CC2)nn1-c1ccccc1` [Compound No. 9, 3-[(4-phenylpiperazin-1-yl)methylcarboxamido]methyl-5-isobutyl-1-phenyl-1H-pyrazole]: the IC50 was found to be 3540 ± 90 nM.
The same measure for `Cc1cc(CNC(=O)CN2CCN(Cc3ccc(Cl)c(Cl)c3)CC2)nn1-c1ccccc1` [Compound No. 6, 3-{[4-(3,4-dichlorobenzyl)piperazin-1-yl]methylcarboxamido}methyl-5-methyl-1-phenyl-1H-pyrazole]: 1420 ± 160 nM; for `CCCc1cc(CNC(=O)CN2CCN(c3ccccc3)CC2)nn1-c1ccccc1` [Compound No. 27, 3-[(4-phenylpiperazin-1-yl)methylcarboxamido}methyl-5-propyl-1-phenyl-1H-pyrazole]: 5100 ± 110 nM; for `Cc1cccc(N2CCN(CC(=O)NCc3cc(C)n(-c4ccccc4)n3)CC2)c1C` [Compound No. 1, 3-{[4-(2,3-dimethyl)phenylpiperazin-1-yl]methylcarboxamido}methyl-5-methyl-1-phenyl-1H-pyrazole]: 20 ± 10 nM.
Regarding `Cc1cc(CNC(=O)CN2CCN(Cc3cccc(C(F)(F)F)c3)CC2)nn1-c1ccccc1` [Compound No. 5, 3-{[4-(3-trifluoromethyl)benzylpiperazin-1-yl]methylcarboxamido}methyl-5-methyl-1-phenyl-1H-pyrazole], the concentration for half-maximal inhibition (IC50) amounted to 1420 ± 160 nM.
For the molecule `Cc1cccc(N2CCN(C(=O)CNCc3cc(CC(C)C)n(-c4ccccc4)n3)CC2)c1C` [Compound No. 76, 3-{[4-(2,3-dimethylphenyl)piperazin-1-yl]carbonylmethylamino}methyl-5-isobutyl-1-phenyl-1H-pyrazole], the concentration for half-maximal inhibition (IC50) stood at 360 ± 30 nM.
For `Cc1cc(CNCC(=O)N2CCN(C(c3ccccc3)c3ccccc3)CC2)nn1-c1ccccc1` [Compound No. 65, 3-[(4-benzhydrylpiperazin-1-yl)carbonylmethylamino]methyl-5-methyl-1-phenyl-1H-pyrazole], the concentration for half-maximal inhibition (IC50) turned out to be 3500 ± 350 nM.
As for `Cc1ccc(N2CCN(C(=O)CNCc3cc(CC(C)C)n(-c4ccccc4)n3)CC2)c(C)c1` [Compound No. 69, 3-{[4-(2,4-dimethylphenyl)piperazin-1-yl]carbonylmethylamino}methyl-5-isobutyl-1-phenyl-1H-pyrazole], the concentration for half-maximal inhibition (IC50) came to 400 ± 40 nM.
